Laboratory results: US10874659B2, “Iloperidone metabolite for use in the treatment of psychiatric disorders” (Vanda Pharmaceuticals, Inc., priority 2012, dated 2020)

Experiment: Conversion of (R)-P88 and (S)-P88 to iloperidone in human liver S9 fraction in the presence of NAD and NADP
Assay type: in vitro ADME
Conditions: 13 concentrations 1 to 100 μM, initial rate conditions
Protocol: The aim of this study was to evaluate the potential conversion of (R)-P88 and (S)-P88 to iloperidone in human liver S9 fraction in the presence of NAD and NADP. A copy of the final report from this study, entitled, “InVitro Metabolism of (R)-P88 and (S)-P88 in Human Liver S9 Fraction,” (“Final Report”) is attached.
Three concentrations of (R)-P88 and (S)-P88 (1, 10 and 100 μM) were incubated with human liver S9 fractions in the presence of NAD and NADP. Under initial rate conditions, 13 concentrations of (R)-P88 and (S)-P88 (1 to 100 μM) were incubated with human liver S9 fractions to determine the Michaelis-Menten enzyme kinetic constants, Km and Vmax, for the formation of iloperidone.

Compound	Enzyme kinetic behaviour of the conversion to iloperidone (plot shape / best-fit model)
COc1cc([C@H](C)O)ccc1OCCCN1CCC(c2noc3cc(F)ccc23)CC1 [S-P88]	best fit a biphasic saturation enzyme model
COc1cc([C@@H](C)O)ccc1OCCCN1CCC(c2noc3cc(F)ccc23)CC1 [R-P88]	slightly S-shaped direct plot and “hook”-shaped Eadie-Hofstee plot suggesting allosteric interactions
